Measurements as given in the supplement of paper PMC11061612.

Tests used:
[1] = tested on: HSC-4 (Oral Cavity Carcinoma); assay: combination Emax (second highest fraction inhibited in the dose matrix, 72 h); higher = more inhibition; extreme values may be limits of the assay
Method in brief: (§1)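 Cell lines grown in DMEM/F12 or RPMI with 10% FBS were plated in 1536-well plates and held 24 hours at 37°C, 5% CO2 before 72 hours of exposure to two-drug dose matrices, with DMSO typically at 0.2%. CellTiter-Glo 2.0 luminescence gave viability, which was converted to inhibition. Vehicle wells were set to 0 and blank wells to 1. Combination Emax is the second-highest inhibition in the matrix, and Bliss excess is the observed combination effect minus the expected EA + EB − EA·EB, where EA and EB are the single-agent effects.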

[2] = tested on: NEC8 (Other Solid Carcinomas); assay: as above
Method in brief: as §1

[3] = tested on: SCC-15 (Oral Cavity Carcinoma); assay: as above
Method in brief: as §1

[4] = tested on: NCI-H1915 (Non-Small Cell Lung Carcinoma); assay: as above
Method in brief: as §1

[5] = tested on: OSC-20 (Oral Cavity Carcinoma); assay: as above
Method in brief: as §1

[6] = tested on: NUGC-3 (Gastric Carcinoma); assay: as above
Method in brief: as §1

[7] = tested on: TE-1 (Esophageal Squamous Cell Carcinoma); assay: as above
Method in brief: as §1

[8] = tested on: C-4-I (Cervical Carcinoma); assay: as above
Method in brief: as §1

[9] = tested on: KMOE-2 (Acute Myeloid Leukemia); assay: as above
Method in brief: as §1

[10] = tested on: JVM-3 (B-Cell Non-Hodgkin's Lymphoma); assay: as above
Method in brief: as §1

PWR-1E (Non-Cancerous) = assay: as above
Method in brief: as §1

[11] = tested on: HOP-62 (Lung Adenocarcinoma); assay: as above
Method in brief: as §1

[12] = tested on: OE19 (Esophageal Adenocarcinoma); assay: as above
Method in brief: as §1

[13] = tested on: HSC-4 (Oral Cavity Carcinoma); assay: Bliss excess, mean over the matrix (fraction); higher = more synergy
Method in brief: as §1

[14] = tested on: HGC-27 (Gastric Carcinoma); assay: as above
Method in brief: as §1

[15] = tested on: NCI-H1915 (Non-Small Cell Lung Carcinoma); assay: as above
Method in brief: as §1

[16] = tested on: OSC-20 (Oral Cavity Carcinoma); assay: as above
Method in brief: as §1

[17] = tested on: NUGC-3 (Gastric Carcinoma); assay: as above
Method in brief: as §1

[18] = tested on: TE-1 (Esophageal Squamous Cell Carcinoma); assay: as above
Method in brief: as §1

[19] = tested on: HOP-62 (Lung Adenocarcinoma); assay: as above
Method in brief: as §1
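For Bliss excess, mean over the matrix in this document: after 72 h of two-drug dosing.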

Compound | combination Emax [1] | combination Emax [2] | combination Emax [3] | combination Emax [4] | combination Emax [5] | combination Emax [6] | combination Emax [7] | combination Emax [8] | combination Emax [9] | combination Emax [10] | combination Emax (PWR-1E (Non-Cancerous)) | combination Emax [11] | combination Emax [12] | Bliss excess [13] | Bliss excess [14] | Bliss excess [15] | Bliss excess [16] | Bliss excess [17] | Bliss excess [18] | Bliss excess [19]
Cc1cc2ncnn2cc1Nc1ncc2c(n1)n(C1CCOCC1)c(=O)n2C [AZD7648] + O=C(c1cc(Cc2n[nH]c(=O)c3ccccc23)ccc1F)N1CCN(C(=O)C2CC2)CC1 [Olaparib] (first compound max 10 µM, 7x7, partner max 10 µM) | 0.26 | 0.259 | 0.14 | 0.372 | 0.265 | 0.349 | 0.15 | 0.224 | 0.176 | 0.499 | 0.28 | 0.145 | 0.289 | -0.0448 | -0.0092 | -0.0215 | 0.0194 | -0.0175 | -0.0298 | -0.0528
CN(CCO)CC[C@H](CSc1ccccc1)Nc1ccc(S(=O)(=O)NC(=O)c2ccc(N3CCC([C@@H](O)c4ccccc4-c4ccc(Cl)cc4)CC3)cc2)cc1S(=O)(=O)C(F)(F)F [AZD4320] + CCN(CCO)CCCOc1ccc2c(Nc3cc(CC(=O)Nc4cccc(F)c4)[nH]n3)ncnc2c1 [AZD2811] (first compound max 1 µM, 7x7, partner max 1 µM) | 0.517 | 0.159 | 0.346 | 0.31 | 0.291 | 0.498 | 0.655 | 0.657 | 0.934 | 1 | 0.843 | 0.359 | 0.854 | -0.0335 | 0.032 | 0.0393 | -0.062 | 0.0077 | 0.0794 | -0.0197
CN(CCO)CC[C@H](CSc1ccccc1)Nc1ccc(S(=O)(=O)NC(=O)c2ccc(N3CCC([C@@H](O)c4ccccc4-c4ccc(Cl)cc4)CC3)cc2)cc1S(=O)(=O)C(F)(F)F [AZD4320] + C1CN(CCC1(C(=O)N[C@@H](CCO)C2=CC=C(C=C2)Cl)N)C3=NC=NC4=C3C=CN4 [Capivasertib] (first compound max 1 µM, 7x7, partner max 3 µM) | 0.32 | 0.0891 | 0.14 | 0.116 | 0.0937 | 0.127 | 0.369 | 0.145 | 0.828 | 0.889 | 0.252 | 0.115 | 0.333 | -0.0269 | -0.0252 | -0.0459 | -0.0513 | -0.039 | -0.0292 | -0.0414
Cc1nc(Nc2ncc(C(=O)Nc3c(C)cccc3Cl)s2)cc(N2CCN(CCO)CC2)n1 [Dasatinib] + CC(=O)Nc1cccc(-n2c(=O)n(C3CC3)c(=O)c3c(Nc4ccc(I)cc4F)n(C)c(=O)c(C)c32)c1 [Trametinib] (first compound max 2 µM, 7x7, partner max 1 µM) | 0.423 | 0 | 0.739 | 1 | 0.434 | 0.721 | 0.791 | 0.731 | 1 |  | 0.897 | 0.749 | 0.797 | -0.0681 | -0.0355 | 0.0564 | -0.0148 | 0.0374 | -0.0067 | -0.0824
CN(CCO)CC[C@H](CSc1ccccc1)Nc1ccc(S(=O)(=O)NC(=O)c2ccc(N3CCC([C@@H](O)c4ccccc4-c4ccc(Cl)cc4)CC3)cc2)cc1S(=O)(=O)C(F)(F)F [AZD4320] + Cn1cnc2c(F)c(Nc3ccc(Br)cc3Cl)c(C(=O)NOCCO)cc21 [Selumetinib] (first compound max 1 µM, 7x7, partner max 3 µM) | 0.797 | 0.341 | 0.548 | 0.583 | 0.321 | 0.762 | 0.554 | 0.52 | 1 | 1 | 0.601 | 0.536 | 0.314 | 0.0732 | 0.0579 | 0.0324 | 0.0488 | 0.104 | 0.0819 | -0.0508
Cc1cc2ncnn2cc1Nc1ncc2c(n1)n(C1CCOCC1)c(=O)n2C [AZD7648] + CN(C)CCCOc1ccc(-c2ccc3ncc4c(c3c2)n(C2CCOCC2)c(=O)n4C)cn1 [AZD0156] (first compound max 10 µM, 7x7, partner max 1 µM) | 0.112 | 0.0719 | 0.292 | 0.294 | 0.224 | 0.296 | 0.19 | 0.211 | 0.213 | 0.638 | 0.363 | 0.144 | 0.363 | -0.0154 | 0.0101 | -0.0208 | -0.0082 | -0.0262 | -0.051 | -0.0173
CN(CCO)CC[C@H](CSc1ccccc1)Nc1ccc(S(=O)(=O)NC(=O)c2ccc(N3CCC([C@@H](O)c4ccccc4-c4ccc(Cl)cc4)CC3)cc2)cc1S(=O)(=O)C(F)(F)F [AZD4320] + Cc1cc2ncnn2cc1Nc1ncc2c(n1)n(C1CCOCC1)c(=O)n2C [AZD7648] (first compound max 1 µM, 7x7, partner max 10 µM) | 0.129 | 0.159 | 0.265 | 0.223 | 0.0714 | 0.347 | 0.38 | 0.132 | 0.896 | 0.916 | 0.0822 | 0.167 | 0.415 | -0.0592 | -0.0473 | -0.0254 | -0.0548 | -0.0234 | -0.0443 | -0.0479
Cc1cc2ncnn2cc1Nc1ncc2c(n1)n(C1CCOCC1)c(=O)n2C [AZD7648] + C=CCn1c(=O)c2cnc(Nc3ccc(N4CCN(C)CC4)cc3)nc2n1-c1cccc(C(C)(C)O)n1 [AZD1775] (first compound max 10 µM, partner max 1 µM) | 0.41 | 0.123 | 0.439 | 0.553 | 0.354 | 0.587 | 0.621 | 0.899 | 0.924 | 0.904 | 0.562 | 0.241 | 0.465 | -0.0082 | -0.012 | -0.0738 | -0.0252 | 0.0165 | -0.0045 | -0.0093
C[C@@H](c1ccc2nccn2c1)n1nnc2ncc(-c3cnn(C)c3)nc21 [Savolitinib] + CC1(C)CCC(CN2CCN(c3ccc(C(=O)NS(=O)(=O)c4ccc(NCC5CCOCC5)c([N+](=O)[O-])c4)c(Oc4cnc5[nH]ccc5c4)c3)CC2)=C(c2ccc(Cl)cc2)C1 [Venetoclax] (first compound max 1 µM, 7x7, partner max 1 µM) | 0 | 0.117 | 0.191 | 0.145 | 0.149 | 0.181 | 0.0986 | 0.0949 | 0.0977 |  | 0.0879 | 0.0599 | 0.166 | -0.0776 | -0.0158 | -0.0456 | -0.0521 | -0.0666 | -0.0546 | -0.0939
Cc1cc2ncnn2cc1Nc1ncc2c(n1)n(C1CCOCC1)c(=O)n2C [AZD7648] + CCN(CCO)CCCOc1ccc2c(Nc3cc(CC(=O)Nc4cccc(F)c4)[nH]n3)ncnc2c1 [AZD2811] (first compound max 10 µM, 7x7, partner max 1 µM) | 0.188 | 0.0355 | 0.458 | 0.252 | 0.454 | 0.418 | 0.246 | 0.298 | 0.297 | 0.592 | 0.588 | 0.204 | 0.774 | 0.0036 | -0.0685 | -0.0444 | -0.0209 | -0.0046 | -0.0535 | 0.0126
CN(CCO)CC[C@H](CSc1ccccc1)Nc1ccc(S(=O)(=O)NC(=O)c2ccc(N3CCC([C@@H](O)c4ccccc4-c4ccc(Cl)cc4)CC3)cc2)cc1S(=O)(=O)C(F)(F)F [AZD4320] + C[C@@H]1COCCN1C2=NC(=NC(=C2)C3(CC3)[S@](=N)(=O)C)C4=C5C=CNC5=NC=C4 [AZD6738] (first compound max 1 µM, 7x7, partner max 10 µM) | 0.927 | 0.904 | 0.709 | 0.529 | 0.358 | 0.756 | 0.742 | 0.952 | 0.938 | 0.993 | 0.971 | 0.599 | 0.726 | 0.12 | -0.0321 | -0.044 | -0.0694 | -0.0445 | -0.004 | -0.0483
C[C@@H](c1ccc2nccn2c1)n1nnc2ncc(-c3cnn(C)c3)nc21 [Savolitinib] + Cc1c2c(nn1C)CSCc1cc(n(C)n1)CSc1cc(c3ccccc3c1)OCCCc1c(C(=O)O)n(C)c3c-2c(Cl)ccc13 [AZD5991] (first compound max 1 µM, 7x7, partner max 1 µM) | 0.236 | 0.273 | 0.186 | 0.0983 | 0.137 | 0.23 | 0.162 | 0.273 | 0.113 |  | 0.186 | 0.154 | 0.235 | -0.0864 | 0.0154 | -0.0587 | -0.0239 | -0.0379 | -0.0748 | -0.0754
COc1cc2ncnc(Nc3ccc(F)c(Cl)c3)c2cc1OCCCN1CCOCC1 [Gefitinib] + CC(C)n1c(=O)n(C)c2cnc3cc(F)c(-c4ccc(OCCCN5CCCCC5)nc4)cc3c21 [AZD1390] (first compound max 10 µM, 7x7, partner max 0.3 µM) | 0.0642 | 0 | 0.39 | 0.213 | 0.064 | 0.486 | 0.368 | 0.387 | 0.0507 |  | 0.205 | 0.0723 | 0.943 | -0.0847 | -0.0261 | -0.0433 | -0.0691 | -0.0515 | -0.0471 | -0.0751
